Test system: TAC mice
Assay: Dobutamine contractile response in TAC and sham mice
Assay type: in vivo
Conditions: TAC versus sham mice, 3, 6, 10 ng/BW g
Protocol: TAC mice and sham control. n = 5 (TAC) and n = 3 (sham operated). LVIDd, LV internal diameter during diastole; LVIDs, LV internal diameter during systole; FS, fractional shortening; EF, ejection fraction. (e) SERCA2a protein levels were detected by Western blot analysis. 15 µg of tissue extracts was separated on 7.5% SDS-PAGE gels, transferred to nitrocellulose membrane and blotted with anti-SERCA2a antibody. Band intensity was quantified by Image J software. The amount of GAPDH was used as a normalization control. (f) Dobutamine was infused to test contractile response to β-agonist stimulation in TAC and sham operated animals.
LV pressure rise rate (+dP/dt max) was measured in response to different dose of dobutamine stimulation. Dose-dependent dobutamine response was blunted in TAC animals. n = 3 mice per each dose. Data are represented as mean ± SEM. * p < 0.05 versus baseline (Student’s t-test).

## CC(CCc1ccc(O)cc1)NCCc1ccc(O)c(O)c1 (centres unmarked) [dobutamine]
  contractile / chronotropic response (+dP/dt max) to dobutamine: significantly abrogated
Listed as Dobutamine
  contractile / chronotropic response (+dP/dt max) to dobutamine: blunted

Source: article PMC4467461, “Small-molecule activation of SERCA2a SUMOylation for the treatment of heart failure” (Nature Communications, 2015)
